# Measured values from patent US20020137780A1, “Differentiating agents for the treatment of inflammatory intestinal diseases” (priority 1995, published 2002).
# Key:
# [1] = tested on: IL-8 mRNA; experiment: Inhibition of IL-1β stimulated IL-8 gene expression in Caco-2 cells (Northern blot); assay type: cell-based
# Description: Caco-2 cells (American Type Culture Collection, Rockville, Maryland) were plated at a density of 4×10^4 cells per cm^2 in 10 cm dishes containing Dulbecco's modified Eagle's medium (DMEM) with 10% fetal bovine serum and penicillin/streptomycin as described by Wu et al., J. Biol. Chem., 1992, 267:7863-7870 and Traber et al., Mol. Cell. Biol., 1992, 12:3614-3627. At days 5 (pre-confluent state) and 18 (post-confluent state) the cells were stimulated with complete medium containing 5 ng/ml of IL-1β (R and D Systems, Minneapolis, MN). Total RNA was isolated from these cells 2 and 4 hours after the addition of IL-1 containing medium as well as from a control cell population not treated with IL-1β in accordance with procedures described by Chomczynski, P. and Sacchi, N., Anal. Biochem., 1987, 162:156-159. Ten micrograms of RNA for each sample was electrophoretically separated, transferred to a nylon membrane, and UV crosslinked in accordance with procedures described by Traber et al., Am. J. Physiol., 1992, 262:G123-G130. A cDNA probe for IL-8 was prepared by RT-PCR of total RNA from Caco-2 cells stimulated with IL-1 for 2 hours. Random hexamers were used for reverse transcription of the RNA using reaction conditions similar to those described by Wu et al., Gastroenterology, 1993, 105:837-844. A 277 bp cDNA was amplified from the RT reaction by PCR using the 5′ primer IL-8(+103) and the 3′ primer IL-8(EX4), cloned using a TA-vector (Marchuk et al., Nuc. Acids Res., 1991, 19:1154), and labeled with ^32p using a Random Primers DNA labeling System (Gibco BRL, Gaithersburg, Md.). Hybridization of the Northern blots were performed using conditions as described by Huang et al., Mol. Endo., 1993, 7:1391-1398.
# [2] = tested on: alkaline phosphatase mRNA; experiment: Induction of alkaline phosphatase mRNA, marker for intestinal epithelial cell differentiation, in Caco-2 cells; assay type: cell-based
# [3] = tested on: Caco-2 cells; experiment: Caco-2 cell toxicity / cell death during treatment with differentiating agents
# [4] = tested on: murine erythroleukemia cells; conditions: in vitro; cited from earlier work
# [5] = orally or intraperitoneally, 26.5 mmole/kg; cited from earlier work
# [6] = e.g. six premature infants fed butyrates for 4 days at about 20 mmol/kg/day; cited from earlier work
# [7] = tested on: cell proliferation; conditions: same dose; cited from earlier work
# [8] = tested on: Caco-2 cells; conditions: concentrations of 10-8 and 10-9; cited from earlier work
molecule,measurement,setting,value
CCCC(=O)[O-].[Na+] [sodium butyrate],concentration of maximal inhibition of IL-8 mRNA expression,"[1]; Caco-2 cells, IL-1β 5 ng/ml for 2 hours",2.5 mM
same,steady state levels of IL-8 mRNA,"[1]; sodium butyrate 0.1 to 2.5 mM, 3 days, IL-1β 5 ng/ml for 2 hours",dose dependent reduction
same,expression of IL-8 mRNA,[1]; sodium butyrate at concentrations higher than 2.5 mM,increased expression
same,mRNA for alkaline phosphatase,[2]; sodium butyrate 2.5 mM,induction
same,concentration causing significant toxicity and cell death,[3]; Caco-2 cells,higher than 2.5 mM
same,tolerance by Caco-2 cells / cell death,[3]; sodium butyrate 0.1 to 2.5 mM,well-tolerated by Caco-2 cells without any evidence of cell death
CCCC(=O)O [butyric acid],erythroid differentiation of erythroleukemia,[4],induced
CCCC(=O)OCC(O)CO (centres unmarked) [monobutyrin],erythroid differentiation of erythroleukemia,[4],induced
same,potency relative to butyric acid on a molar basis,[4],much less potent
phenylacetate,IL-8 mRNA expression,"[1]; phenylacetate 2.5 to 10 mM, IL-1β 5 ng/ml for 2 hours",Dose dependent inhibition
same,Caco-2 cell toxicity,[3]; any concentration of phenylacetate studied (2.5 to 10 mM),no evidence of Caco-2 cell toxicity
CCC(=O)[O-].[Na+] [sodium propionate],IL-8 mRNA expression,"[1]; sodium propionate 0.1 to 20 mM, IL-1β 5 ng/ml for 2 hours",inhibited IL-8 mRNA expression in a dose dependent fashion
same,alkaline phosphatase mRNA expression,[2]; sodium propionate 0.1 to 20 mM,induction
same,cell toxicity or death,"[3]; maximum concentration studied, 20 mM",did not lead to cell toxicity or death
CCCC(=O)OCC(COC(=O)CCC)OC(=O)CCC [tributyrin],"concentration giving identical biological response, relative to sodium butyrate","[1]; in vitro, differentiation and inhibition of IL-8 gene expression",one third
same,erythroid differentiation of erythroleukemia,[4],induced
same,potency relative to butyric acid on a molar basis,[4],3- to 4 fold
same,toxicity in mice,[5],No toxicity
same,tolerability in humans,[6],well tolerated
same,effectiveness in inhibiting cell proliferation relative to sodium butyrate,[7],only as effective as sodium butyrate
"C=C1/C(=C\C=C2/CCC[C@]3(C)[C@@H]([C@H](C)CCCC(C)(C)O)CC[C@@H]23)C[C@@H](O)C[C@@H]1O [1,25-(OH)2D3, 1,25-dihydroxyvitamin D3]",steady state IL-8 mRNA expression,"[1]; concentrations of 10-8 and 10-9, IL-1β 5 ng/ml for 2 hours",decrease
same,Caco-2 cell proliferation,[8],inhibit
same,markers of intestinal epithelial differentiation,[8],induce
